Assay results as given in patent publication US20080234646A1, “Odour-Preventing, Water-Absorbing Compositions” (priority 2005, published 2008).

Molecular target: T1, urease (from jack beans) (Canavalia ensiformis, UniProt P07374)
T1 construct: urease (from jack beans); lyophilized 5 U/mg for urea assay in serum; purchased Merck KGaA, Germany; host or cells: jack beans (natural source)
Experiment: odor-preventing effect: ammonia release from urea/urease solution, read with a diffusion tube
Type: biochemical
Conditions: 2 g composition, 30 mg urease, 50 ml 0.9% NaCl with 8.56 g/l urea, 23° C.
Method: 100 g lots of water-absorbing polymer from Example 1 were mixed in a tumble mixer with different amounts of N-cyclohexylthiophosphoramide, N-(n-butyl)thiophosphoramide or N-(n-propyl)thiophosphoramide, for 20 minutes each.
To determine the odor-preventing effect, 2 g of each of the compositions produced above were placed in a 100 ml Erlenmeyer flask and admixed with a freshly prepared solution of 30 mg of urease (from jack beans; lyophilized 5 U/mg for urea assay in serum; Merck KGaA, Germany) and 50 ml of 0.9% sodium chloride solution, the sodium chloride solution containing 8.56 g/l of urea, and sealed with a stopper having an internal diffusion tublet (Drager® Röhrchen; ammonia 20/a-D, 20 to 1500 ppm*h). The measured value was read off every 30 minutes. The measurement was discontinued after 6 hours. The test was carried out at 23° C.

[1] = 0.01 % by weight substituted thiophosphoramide in composition with water-absorbing polymer
[2] = 0.05 % by weight substituted thiophosphoramide in composition with water-absorbing polymer
[3] = 0.15 % by weight substituted thiophosphoramide in composition with water-absorbing polymer
[4] = 0.25 % by weight substituted thiophosphoramide in composition with water-absorbing polymer
[5] = 0.35 % by weight substituted thiophosphoramide in composition with water-absorbing polymer
[6] = 0.50 % by weight substituted thiophosphoramide in composition with water-absorbing polymer
[7] = 1.50 % by weight substituted thiophosphoramide in composition with water-absorbing polymer

T1 sequence (P07374 whole entry, looked up): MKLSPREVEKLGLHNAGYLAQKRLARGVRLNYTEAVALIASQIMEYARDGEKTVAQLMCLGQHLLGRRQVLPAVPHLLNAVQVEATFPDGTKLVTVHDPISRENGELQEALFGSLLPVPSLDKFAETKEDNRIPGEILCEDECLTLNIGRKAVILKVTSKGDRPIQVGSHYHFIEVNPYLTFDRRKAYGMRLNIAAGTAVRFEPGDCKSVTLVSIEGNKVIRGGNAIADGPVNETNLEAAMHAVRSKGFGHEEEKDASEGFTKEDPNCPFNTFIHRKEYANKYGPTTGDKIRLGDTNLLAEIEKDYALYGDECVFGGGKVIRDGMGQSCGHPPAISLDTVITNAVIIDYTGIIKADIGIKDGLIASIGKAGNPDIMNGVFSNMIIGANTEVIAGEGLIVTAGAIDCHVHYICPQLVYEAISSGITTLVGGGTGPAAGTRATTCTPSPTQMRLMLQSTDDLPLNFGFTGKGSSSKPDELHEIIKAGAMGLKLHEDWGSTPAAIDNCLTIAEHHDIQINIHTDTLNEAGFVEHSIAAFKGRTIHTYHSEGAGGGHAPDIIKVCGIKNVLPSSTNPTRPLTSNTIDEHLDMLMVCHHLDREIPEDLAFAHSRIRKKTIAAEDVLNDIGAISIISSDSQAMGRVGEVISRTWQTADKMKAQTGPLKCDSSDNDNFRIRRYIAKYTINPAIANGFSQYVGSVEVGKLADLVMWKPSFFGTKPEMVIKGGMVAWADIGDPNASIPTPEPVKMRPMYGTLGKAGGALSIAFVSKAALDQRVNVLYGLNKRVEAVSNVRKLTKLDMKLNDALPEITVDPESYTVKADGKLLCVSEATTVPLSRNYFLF

SMILES	ammonia after 6 hours [1]	ammonia after 6 hours [2]	ammonia after 6 hours [3]	ammonia after 6 hours [4]	ammonia after 6 hours [5]	ammonia after 6 hours [6]	ammonia after 6 hours [7]
CCCNP(N)(N)=S [R = n-propyl, N-(n-propyl)thiophosphoramide]	+ (less than 50 ppm of ammonia after 6 hours)	+ (less than 50 ppm of ammonia after 6 hours)	+ (less than 50 ppm of ammonia after 6 hours)	+ (less than 50 ppm of ammonia after 6 hours)	+ (less than 50 ppm of ammonia after 6 hours)	+ (less than 50 ppm of ammonia after 6 hours)	+ (less than 50 ppm of ammonia after 6 hours)
CCCCNP(N)(N)=S [R = n-butyl, N-(n-butyl)thiophosphoramide]	+ (less than 50 ppm of ammonia after 6 hours)	+ (less than 50 ppm of ammonia after 6 hours)	+ (less than 50 ppm of ammonia after 6 hours)	+ (less than 50 ppm of ammonia after 6 hours)	+ (less than 50 ppm of ammonia after 6 hours)	+ (less than 50 ppm of ammonia after 6 hours)	+ (less than 50 ppm of ammonia after 6 hours)
NP(N)(=S)NC1CCCCC1 [R = cyclohexyl, N-cyclohexylthiophosphoramide, reference compound]	− (more than 50 ppm of ammonia after 6 hours)	− (more than 50 ppm of ammonia after 6 hours)	− (more than 50 ppm of ammonia after 6 hours)	− (more than 50 ppm of ammonia after 6 hours)	+ (less than 50 ppm of ammonia after 6 hours)	+ (less than 50 ppm of ammonia after 6 hours)	+ (less than 50 ppm of ammonia after 6 hours)
